The text below walks through data of US11878965B2, “Inhibitors of peptidylarginine deiminases” (Gilead Sciences, Inc., priority 2020, dated 2024).

Molecules are shown by their SMILES.

The assay deals with human PAD4 (Homo sapiens (Human), UniProt Q9UM07). As to the kind of experiment: In Vitro PAD4 BAEE Biochemical Assay. The settings on record: geometric mean of multiple experiments. The essentials: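 Deimination of BAEE substrate (3 mM) measured as ammonia via o-phthalaldehyde–DTT isoindole fluorescence, 405/535 nm. Tag-free bacterially expressed human PAD4 at 5 nM with 2 mM calcium chloride, pH 7.6 MOPS buffer, 30 min compound preincubation then 2 h reaction, both at 25 °C.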

Where [1] appears, read: human PAD4, BAEE substrate, 5 nM PAD4, 2 mM calcium chloride, 3 mM BAEE.

Chain of human PAD4 (Q9UM07 2-663): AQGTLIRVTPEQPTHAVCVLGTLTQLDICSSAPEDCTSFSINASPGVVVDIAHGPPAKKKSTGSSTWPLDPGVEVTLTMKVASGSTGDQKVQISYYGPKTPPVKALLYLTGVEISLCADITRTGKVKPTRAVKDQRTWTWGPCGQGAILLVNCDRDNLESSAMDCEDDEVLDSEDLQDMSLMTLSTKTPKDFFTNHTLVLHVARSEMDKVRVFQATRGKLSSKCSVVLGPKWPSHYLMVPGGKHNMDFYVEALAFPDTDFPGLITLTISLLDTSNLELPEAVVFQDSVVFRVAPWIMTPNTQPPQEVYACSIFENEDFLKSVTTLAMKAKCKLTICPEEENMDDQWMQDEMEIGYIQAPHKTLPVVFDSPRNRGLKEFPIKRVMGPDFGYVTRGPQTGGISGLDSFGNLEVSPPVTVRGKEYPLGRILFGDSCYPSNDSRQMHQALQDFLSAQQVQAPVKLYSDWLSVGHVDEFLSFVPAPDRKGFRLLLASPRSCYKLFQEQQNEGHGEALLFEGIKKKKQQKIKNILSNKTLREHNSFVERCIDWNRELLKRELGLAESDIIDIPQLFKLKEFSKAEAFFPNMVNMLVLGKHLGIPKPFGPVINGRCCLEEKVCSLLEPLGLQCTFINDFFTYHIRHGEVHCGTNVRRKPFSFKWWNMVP

The IC50 is the concentration that inhibits the measured activity by half. In the case of `COc1cc(C(=O)N2[C@H]3CC[C@@H]2[C@H](N)C3)cc2nc(-c3cc4cc(F)c(CCNC(=O)C56CC(F)(C5)C6)cc4n3CC3CC3)n(C)c12` [Example 146, N-((R)-2-(2-(5-((1R,2R,4S)-2-amino-7-azabicyclo[2.2.1]heptane-7-carbonyl)-7-methoxy-1-methyl-1H-benzo[d]imidazol-2-yl)-1-(cyclopropylmethyl)-5-fluoro-1H-indol-6-yl)ethyl)-3-fluorobicyclo[1.1.1]pentane-1-carboxamide], the IC50 under setting [1] amounted to 45.8 nM.

`COc1cc(C(=O)N2CC[C@@H]3OCCN[C@@H]3C2)cc2nc(-c3cc4ccc(N(C(F)F)S(C)(=O)=O)nc4n3CC3CC3)n(C3CC3)c12` [Example 69, N-(2-(1-cyclopropyl-7-methoxy-5-((4aR,8aS)-octahydro-2H-pyrido[4,3-b][1,4]oxazine-6-carbonyl)-1H-benzo[d]imidazol-2-yl)-1-(cyclopropylmethyl)-1H-pyrrolo[2,3-b]pyridin-6-yl)-N-(difluoromethyl) methanesulfonamide]: the IC50 under setting [1] came to 50000 nM.

On to `COc1cc(C(=O)N2CC3CCC3(N)C2)cc2nc(-c3cc4ccc(N(C(F)F)S(C)(=O)=O)nc4n3CC3CC3)n(C)c12` (centres unmarked) [Example 78, N-(2-(5-(1-amino-3-azabicyclo[3.2.0]heptane-3-carbonyl)-7-methoxy-1-methyl-1H-benzo[d]imidazol-2-yl)-1-(cyclopropylmethyl)-1H-pyrrolo[2,3-b]pyridin-6-yl)-N-(difluoromethyl) methanesulfonamide], for which the half-inhibitory concentration (IC50) under setting [1] came to 655 nM.

For the molecule `C[C@H]1CCCS(=O)(=O)N1c1ccc2cc(-c3nc4cc(C(=O)N5CCC[C@@H](N)C5)ccc4n3C3CC3)n(CC3CC3)c2n1` [Example 99, ((R)-3-aminopiperidin-1-yl)(1-cyclopropyl-2-(1-(cyclopropylmethyl)-6-((S)-3-methyl-1,1-dioxido-1,2-thiazinan-2-yl)-1H-pyrrolo[2,3-b]pyridin-2-yl)-1H-benzo[d]imidazol-5-yl) methanone], under setting [1], the IC50 stood at 28.4 nM.

On to `COc1cc(C(=O)N2[C@H]3CC[C@@H]2[C@H](N)C3)cc2nc(-c3cc4ccc([C@@H](C)NC(=O)C56CC(F)(C5)C6)nc4n3CC3CC3)n(C)c12` [Example 121, N-((R)-1-(2-(5-((1R,2R,4S)-2-amino-7-azabicyclo[2.2.1]heptane-7-carbonyl)-7-methoxy-1-methyl-1H-benzo[d]imidazol-2-yl)-1-(cyclopropylmethyl)-1H-pyrrolo[2,3-b]pyridin-6-yl)ethyl)-3-fluorobicyclo[1.1.1]pentane-1-carboxamide], for which the IC50 under setting [1] is 46.3 nM.

As to `COc1cc(C(=O)N2CCC[C@@H](N)C2)cc2nc(-c3cc4cc(F)c([C@@H](C)NC(=O)c5cnn(C(F)F)c5)cc4n3CC3CC3)n(C)c12` [Example 151, N-((R)-1-(2-(5-((R)-3-aminopiperidine-1-carbonyl)-7-methoxy-1-methyl-1H-benzo[d]imidazol-2-yl)-1-(cyclopropylmethyl)-5-fluoro-1H-indol-6-yl)ethyl)-1-(difluoromethyl)-1H-pyrazole-4-carboxamide], under setting [1], the IC50 was determined as 102 nM.

Regarding `COc1cc(C(=O)N2CC[C@@H](C)[C@@H](N)C2)cc2nc(-c3cc4ccc(N(C5CC5)S(C)(=O)=O)nc4n3CC3CC3)n(C)c12` [Example 34, N-(2-(5-((3R,4R)-3-amino-4-methylpiperidine-1-carbonyl)-7-methoxy-1-methyl-1H-benzo[d]imidazol-2-yl)-1-(cyclopropylmethyl)-1H-pyrrolo [2,3-b]pyridin-6-yl)-N-cyclopropylmethanesulfonamide], the IC50 under setting [1] worked out at 300 nM.

For the molecule `COc1cc(C(=O)N2C[C@H](N)CCN2C)cc2nc(-c3cc4ccc([C@@H](C)NC(=O)c5ccccc5C)nc4n3CC3CC3)n(C)c12` [Example 194, N-((R)-1-(2-(5-((R)-5-amino-2-methylhexahydropyridazine-1-carbonyl)-7-methoxy-1-methyl-1H-benzo[d]imidazol-2-yl)-1-(cyclopropylmethyl)-1H-pyrrolo[2,3-b]pyridin-6-yl)ethyl)-2-methylbenzamide], the IC50 under setting [1] came to 123 nM.

Turning to `COc1cc(C(=O)N2CCC[C@@H](N)C2)cc2nc(-c3cc4cc(F)c([C@@H](C)NC(=O)C56CC(F)(C5)C6)cc4n3CC3CC3)n(C)c12` [Example 145, N-((R)-1-(2-(5-((R)-3-aminopiperidine-1-carbonyl)-7-methoxy-1-methyl-1H-benzo[d]imidazol-2-yl)-1-(cyclopropylmethyl)-5-fluoro-1H-indol-6-yl)ethyl)-3-fluorobicyclo[1.1.1]pentane-1-carboxamide], the IC50 under setting [1] amounted to 62.8 nM.

In the case of `COc1cc(C(=O)N2CCC[C@@H](N)C2)cc2nc(-c3cc4ccc(N5CCCNS5(=O)=O)nc4n3CC3CC3)n(C)c12` [Example 107, (R)-(3-aminopiperidin-1-yl)(2-(1-(cyclopropylmethyl)-6-(1,1-dioxido-1,2,6-thiadiazinan-2-yl)-1H-pyrrolo[2,3-b]pyridin-2-yl)-7-methoxy-1-methyl-1H-benzo[d]imidazol-5-yl) methanone], the IC50 under setting [1] worked out at 538 nM.

As to `COc1cc(C(=O)N2CCC[C@@H](N)[C@H]2C)cc2nc(-c3cc4ccc(N(C(F)F)S(C)(=O)=O)nc4n3CC3CC3)n(C)c12` [Example 33, N-(2-(5-((2R,3R)-3-amino-2-methylpiperidine-1-carbonyl)-7-methoxy-1-methyl-1H-benzo[d]imidazol-2-yl)-1-(cyclopropylmethyl)-1H-pyrrolo [2,3-b]pyridin-6-yl)-N-(difluoromethyl) methanesulfonamide], the IC50 under setting [1] is 77.3 nM.

In the case of `CCN(c1ccc2cc(-c3nc4cc(C(=O)N5CCC[C@@H](N)[C@H]5C)cc(OC)c4n3CCOC)n(CC3CC3)c2n1)S(C)(=O)=O` [Example 41, N-(2-(5-((2R,3R)-3-amino-2-methylpiperidine-1-carbonyl)-7-methoxy-1-(2-methoxyethyl)-1H-benzo[d]imidazol-2-yl)-1-(cyclopropylmethyl)-1H-pyrrolo [2,3-b]pyridin-6-yl)-N-ethylmethanesulfonamide], under setting [1], the IC50 worked out at 229 nM.

Turning to `CCS(=O)(=O)N(C)c1ccc2cc(-c3nc4cc(C(=O)N5CCC[C@@H](N)C5)cc(OC)c4n3C)n(CC3CC3)c2n1` [Example 7, (R)-N-(2-(5-(3-aminopiperidine-1-carbonyl)-7-methoxy-1-methyl-1H-benzo[d]imidazol-2-yl)-1-(cyclopropylmethyl)-1H-pyrrolo [2,3-b]pyridin-6-yl)-N-methylethanesulfonamide], the IC50 under setting [1] was 164 nM.

With `COc1cc(C(=O)N2C[C@H](N)CCN2C)cc2nc(-c3cc4ccc([C@@H](C)NC(=O)c5ccccc5C(F)F)nc4n3CC3CC3)n(C)c12` [Example 166, N-((R)-1-(2-(5-((R)-5-amino-2-methylhexahydropyridazine-1-carbonyl)-7-methoxy-1-methyl-1H-benzo[d]imidazol-2-yl)-1-(cyclopropylmethyl)-1H-pyrrolo[2,3-b]pyridin-6-yl)ethyl)-2-(difluoromethyl)benzamide], the IC50 under setting [1] was determined as 180 nM.

Turning to `C[C@@H](NC(=O)c1cnn(C2CC2)c1)c1ccc2cc(-c3nc4cc(C(=O)N5C[C@H](N)[C@@H]6CC[C@H]5C6)cc(F)c4n3C3CC3)n(CC3CC3)c2n1` [Example 231, N-((R)-1-(2-(5-((1S,4R,5R)-4-amino-2-azabicyclo[3.2.1]octane-2-carbonyl)-1-cyclopropyl-7-fluoro-1H-benzo[d]imidazol-2-yl)-1-(cyclopropylmethyl)-1H-pyrrolo[2,3-b]pyridin-6-yl)ethyl)-1-cyclopropyl-1H-pyrazole-4-carboxamide], the IC50 (recombinant PAD4 5 nM, 2 mM calcium chloride, 3 mM BAEE substrate) amounted to 55.9 nM.

`COc1cc(C(=O)N2[C@H]3CC[C@@H]2[C@H](N)C3)cc2nc(-c3cc4ccc([C@@H](C)NC(=O)c5cnc(C)o5)cc4n3CC3CC3)n(C)c12` [Example 138, N-((R)-1-(2-(5-((1R,2R,4S)-2-amino-7-azabicyclo[2.2.1]heptane-7-carbonyl)-7-methoxy-1-methyl-1H-benzo[d]imidazol-2-yl)-1-(cyclopropylmethyl)-1H-indol-6-yl)ethyl)-2-methyloxazole-5-carboxamide]: the IC50 under setting [1] is 27.6 nM.

Take `COc1cc(C(=O)N2[C@H]3CC[C@@H]2[C@H](N)C3)cc2nc(-c3cc4ccc([C@@H](C)NC(=O)c5cnn(C(F)F)c5)cc4n3CC3CC3)n(C)c12` [Example 139, N-((R)-1-(2-(5-((1R,2R,4S)-2-amino-7-azabicyclo[2.2.1]heptane-7-carbonyl)-7-methoxy-1-methyl-1H-benzo[d]imidazol-2-yl)-1-(cyclopropylmethyl)-1H-indol-6-yl)ethyl)-1-(difluoromethyl)-1H-pyrazole-4-carboxamide]: the IC50 under setting [1] stood at 28.9 nM.

Take `COc1cc(C(=O)N2CCC[C@@H](N)C2)cc2nc(-c3cc4ccc([C@@H](C)NC(=O)c5ccccc5)nc4n3CC3CC3)n(C3CC3)c12` [Example 126, N-((R)-1-(2-(5-((R)-3-aminopiperidine-1-carbonyl)-1-cyclopropyl-7-methoxy-1H-benzo[d]imidazol-2-yl)-1-(cyclopropylmethyl)-1H-pyrrolo[2,3-b]pyridin-6-yl)ethyl)benzamide]: the IC50 under setting [1] amounted to 90.8 nM.

As for `COc1cc(C(=O)N2[C@H]3CC[C@@H]2[C@H](N)C3)cc2nc(-c3cc4ccc([C@@H](C)NS(=O)(=O)c5ccc(F)cc5)nc4n3CC3CC3)n(C)c12` [Example 242, N-((R)-1-(2-(5-((1R,2R,4S)-2-amino-7-azabicyclo[2.2.1]heptane-7-carbonyl)-7-methoxy-1-methyl-1H-benzo[d]imidazol-2-yl)-1-(cyclopropylmethyl)-1H-pyrrolo[2,3-b]pyridin-6-yl)ethyl)-4-fluorobenzenesulfonamide], the IC50 under setting [1] turned out to be 107 nM.

Take `COc1cc(C(=O)N2C[C@H](N)[C@@H]3CC[C@H]2C3)cc2nc(-c3cc4ccc([C@@H](C)NC(=O)c5ccccc5)nc4n3CC3CC3)n(C)c12` [Example 222, N-((R)-1-(2-(5-((1S,4R,5R)-4-amino-2-azabicyclo[3.2.1]octane-2-carbonyl)-7-methoxy-1-methyl-1H-benzo[d]imidazol-2-yl)-1-(cyclopropylmethyl)-1H-pyrrolo[2,3-b]pyridin-6-yl)ethyl)benzamide]: the IC50 under setting [1] is 53.5 nM.
